According to patent publication US20250275978A1 (Cardiff Oncology, Inc., priority 2024, published 2025):
Several values for one entry are separate records, joined by “and”; a condition that tells them apart may be missing. Equal entries are not always repeated.

Legend:
AML cell lines = conditions: cited from earlier work
[1] = system: RAS^WT colorectal cancer patient derived xenograft (PDX) models; assay: Example 2: antitumor activity in RAS^WT CRC PDX models, 18-19 days; assay type: in vivo, mice
Method: Tumor volumes (TV) were measured twice a week, and % tumor volume change (TVC) from baseline was calculated as follows: (TVi/TV0−1)×100. Tumor stasis defined as TVC between 0 and 20%, and tumor regression as TVC less than 0% at last measurement. Results are presented as mean±SEM.

CYP1A2 = target: T1, CYP1A2 (Homo sapiens, UniProt P05177); conditions: human liver microsomes; cited from earlier work
T1 construct: was investigated using human liver microsomes; from tissue; host or cells: human liver microsomes
T1 sequence (P05177 1-516): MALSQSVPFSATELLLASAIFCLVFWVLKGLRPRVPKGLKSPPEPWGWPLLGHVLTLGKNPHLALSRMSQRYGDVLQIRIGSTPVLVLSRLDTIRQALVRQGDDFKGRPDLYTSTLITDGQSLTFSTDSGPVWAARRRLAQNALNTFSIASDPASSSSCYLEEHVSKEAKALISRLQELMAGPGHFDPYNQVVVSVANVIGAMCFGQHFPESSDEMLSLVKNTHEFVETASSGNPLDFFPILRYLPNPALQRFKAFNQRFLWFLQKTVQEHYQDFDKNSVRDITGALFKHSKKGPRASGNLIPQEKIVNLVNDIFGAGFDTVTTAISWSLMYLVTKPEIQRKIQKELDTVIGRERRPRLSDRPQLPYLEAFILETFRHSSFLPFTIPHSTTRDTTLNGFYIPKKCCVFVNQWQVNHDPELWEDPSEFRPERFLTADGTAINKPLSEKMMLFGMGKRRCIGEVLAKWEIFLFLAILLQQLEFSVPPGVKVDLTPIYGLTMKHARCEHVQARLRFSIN

[2] = system: cell lines, both from solid as well as hematologic tumors; conditions: large number of cell lines; cited from earlier work
[3] = system: patients with advanced/metastatic solid tumors; conditions: cited from earlier work
[4] = system: panel of 296 kinases, including other PLK members; conditions: cited from earlier work
[5] = mice; cited from earlier work
[6] = rodent and nonrodent species; cited from earlier work
panel of 63 kinases = conditions: low or no activity; cited from earlier work
[7] = system: RAS^WT CRC patient-derived xenograft (PDX) models; assay: Example 1: antitumor activity in RAS^WT CRC PDX models, 18 days; assay type: in vivo, nude mice
Method: Twenty RAS^WT CRC PDXs were selected and engrafted in nude mice. […] Tumor volume change from baseline (TVC) was calculated as 100%×(Vt−Vo)/Vo and tumor growth inhibition (TGI) as 100%×(TVCcontrol−TVCtreated)/TVCcontrol. Tumor regression was defined as TVCD18<0 and tumor stasis […].

[8] = 6 PDXs with acquired resistance to cetuximab
[9] = 7 PDXs with intrinsic resistance to cetuximab

Q: For `CN1CCN(c2ccc(OC(F)(F)F)c(Nc3ncc4c(n3)-c3c(c(C(N)=O)nn3CCO)CC4)c2)CC1` [onvansertib, 1-(2-hydroxyethyl)-8-{[5-(4-methylpiperazin-1-yl)-2-(trifluoromethoxy)phenyl]amino}-4,5-dihydro-1H-pyrazolo[4,3-h]quinazoline-3-carboxamide], which “Inhibition of cell proliferation” value (AML cell lines) is on record?
A: nanomolar concentrations

Q: What about the “models with tumor growth inhibition” value [1, 8] of the same compound?
A: one

Q: What about the “models with tumor stasis or regression” value [1, 8] of the same compound?
A: 4/6

Q: What about the “models with tumor growth inhibition” value ([1]; 7 PDXs sensitive to cetuximab) of the same compound?
A: two

Q: And the “models with tumor stasis or regression” value ([1]; 7 PDXs sensitive to cetuximab, stasis TVC 0-20%)?
A: five and 5/7

Q: And the “models with tumor growth inhibition” value [1, 9]?
A: two

Q: And the “models with tumor stasis or regression” value [1, 9]?
A: 5/7

Q: And the “models with potent antitumor activity” value ([1]; 13 PDX models resistant to cetuximab, 69%)?
A: 9/13

Q: What about the “models with tumor regression” value ([1]; all 20 models) of the same compound?
A: 11 models

Q: And the “models with tumor stasis” value ([1]; all 20 models, TVC between 0 and 20%)?
A: 3 models

Q: And the “Inhibitory effects against CYP1A2” value (CYP1A2)?
A: No significant inhibitory effects

Q: What about the “Activity in proliferation assays” value [2] of the same compound?
A: low nanomolar activity

Q: And the DLTs observed ([3]; 36 mg/m^2/day, 4 patients treated)?
A: 2 DLTs

Q: What about the “patients who developed DLTs” value ([3]; 48 mg/m^2/day) of the same compound?
A: 2 of 3

Q: What about the “DLTs at the first 3 dose levels” value ([3]; 6, 12, and 24 mg/m^2/day) of the same compound?
A: No DLTs

Q: And the “best observed treatment response” value ([3]; in vivo)?
A: stable disease (SD)

Q: What about the “maximum tolerated dose (MTD)” value ([3]; oral, 5 consecutive days every 3 weeks) of the same compound?
A: 24 mg/m^2/day

Q: What about the “recovery from hematologic toxicities” value ([3]; reversible toxicities) of the same compound?
A: ≤ 3 weeks

Q: What about the “Specificity for PLK1 among a panel of 296 kinases” value [4] of the same compound?
A: high specificity

Q: What about the “concentrations relevant to achieve significant anti-tumoral activity” value [5] of the same compound?
A: ~1 µM

Q: And the oral bioavailability [6]?
A: good oral bioavailability

Q: And the IC50 (panel of 63 kinases)?
A: > 500 nM

Q: What about the “PDXs with potent anti-tumor activity (tumor regression or tumor stasis)” value ([7]; 20 PDXs, stasis 0≤TVCD18<100, 85%) of the same compound?
A: 17 out of 20

Q: What about the “median TGI on Day 18” value ([7]; CetuxR PDXs, IQR 74-124) of the same compound?
A: 108

Q: What about the “median TGI on Day 18” value ([7]; CetuxS PDXs, IQR 76-103) of the same compound?
A: 102

Q: And the “PDXs with tumor regression (TVCD18<0)” value ([7]; all 20 PDXs, Day 18)?
A: 11 PDXs

Q: What about the “PDXs with tumor stasis (0≤TVCD18<100)” value ([7]; all 20 PDXs, Day 18) of the same compound?
A: 6 PDXs
